Results taken from patent US12016948B2, “Micromotors and nanomotors for gastrointestinal diagnosis and treatment applications” (The Regents of the University of California, priority 2017, dated 2024).
≈ marks a conversion by molar mass, not a printed value.

System: H. pylori Sydney strain 1 (HPSS1)
Experiment: In vitro bactericidal activity against H. pylori
Assay type: cell-based
Conditions: Helicobacter pylori; kills 3 logs (99.9%) of bacteria; samples pretreated in 0.1 N HCl 1 h; 24 h incubation; read-out: minimal bactericidal concentration (MBC)
Description: To mimic the gastric environment, for example, samples were treated in 0.1 N HCl for 1 h prior to incubation with bacteria. This also ensured the dissolution of micromotors and consecutive drug release. […] Specifically, it was determined that the minimal bactericidal concentration (MBC) values of the samples, defined as the minimal concentration of an antimicrobial agent that kills 3 logs (99.9%) of the bacteria. […] Moreover, bare Mg-based micromotors with corresponding amount of motors were used as negative controls. […] Overall, FIG. 13D verifies that the activity of the loaded drug was not compromised compared to free drug. The example findings validate the potential use of these drug-loaded micromotors for therapeutic applications. In Vitro Anti-H. pylori Activity. H. pylori Sydney strain 1 (HPSS1) was cultured from frozen stock and routinely maintained on Columbia agar supplemented with 5% (vol/vol) laked horse blood at 37° C. under microaerobic conditions (e.g., 10% CO2, 85% N2, and 5% 02). For example, broth cultures of H. pylori were prepared by subculturing fresh colonies from agar plates into Brain heart infusion (BHI) supplemented with 5% fetal bovine serum (FBS) and incubated overnight at 37° C. under microaerobic conditions with moderate reciprocal shaking. […] The plates were cultured for 4 days before the colony-forming unit (CFU) of H. pylori was quantified. […]

In the case of CC[C@H]1OC(=O)[C@H](C)[C@@H](O[C@H]2C[C@@](C)(OC)[C@@H](O)[C@H](C)O2)[C@H](C)[C@@H](O[C@@H]2O[C@H](C)C[C@H](N(C)C)[C@H]2O)[C@](C)(OC)C[C@@H](C)C(=O)[C@H](C)[C@@H](O)[C@]1(C)O [free CLR, clarithromycin], the MBC is reported as 0.25 µg/mL (≈ 0.334 µM).
